Reference: patent US8193157B2, “Antiviral therapies” (priority 2005, dated 2012)
Values after ≈ are worked out from the molar mass of the structure shown. Where two headings read alike, the source gives them in different places. Marks after values point to notes of the source that are not given here.

Tests used:
HIV-1 (strain IIIB) = format: cell-based; conditions: for EC50: CEM cells
HCVcc (subtype 2a) = assay: Infectious HCVcc (subtype 2a) infection of Huh7 cells, luciferase activity; format: cell-based, HCV
Description: Huh7 cells (2×10^4) were plated and 24 hours later infected with supernatants containing infectious HCVcc pre-mixed with serial dilutions of lectins or polyanions. Mannan (2.5 mg/ml; Sigma) was added to some of the mixtures prior to Huh7 infection. After 24 hours post infection, the mixture of virus and test compounds was replaced by fresh medium, cells were brought at 37° C. and luciferase activity was measured in the cell lysates 24 hours later.
The inhibitory activities of carbohydrate binding small molecules and agents against infectious HIV-1 (strain IIIB), HIV-2 (strain ROD) and HCVcc (subtype 2a) were evaluated in human T lymphocyte cells (CEM) and human hepatocellular carcinoma cells (Huh-7), respectively (Table 1). […] The effect of mannan on the antiviral activity of the CBA was investigated.

HCVpp (1b) = assay: HCV pseudoparticle HCVpp (1b) entry into Huh7 cells, luciferase activity; format: cell-based; conditions: mean ±SD
From the text: (§1) Production of pseudoparticles (HCVpp) and cell culture infection. To produce HCVpp, 293T cells (1.2×10^6) were lipofected at a 1:2 ratio of a NLluc^+env^− reporter vector and a vector expressing the HCV envelope glycoproteins as previously described (Bertaux and Dragic, 2006). HCV envelope glycoprotein-encoding sequences corresponding to subtypes 1b and 2b were PCR-amplified from patient sera starting from the last 60 amino acids in the Core to the end of glycoprotein E2. Supernatants were collected 48 hours post lipofection, filtered (0.45μ) and stored at −80° C. until further use. HCVpp were tested by infection of Huh7 cells (5×10^4) and measuring luciferase activity (relative light units, RLU) 48 hours post infection using the Luciferase assay system according to the manufacturer's instructions.
(§2) To measure inhibition of HCVpp (1a,1b,2b) entry into Huh7 cells by CBA and polyanions, an essentially similar procedure has been used as described above for infectious HCVcc (2a).
(§3) In order to reveal whether CBA also act at the level of HCV entry, we evaluated their ability to inhibit entry of pseudoparticles comprising the HCV envelope glycoproteins E1 and E2 into Huh-7 cells.

HIV-2 (strain ROD) = assay: Anti-HIV assay, inhibition of HIV-2(ROD)-induced cytopathicity in CEM cells; format: cell-based; conditions: virus-induced cytopathicity, mean ±SD
VSVpp = format: cell-based, VSV; conditions: read-out: EC50 VSVpp (C8166)
Influenza B = format: cell-based; conditions: MDCK cell cultures
[1] = test system: HIV-1(IIIB) capture by Raji/DC-SIGN cells; assay: Inhibition of HIV-1 capture by Raji/DC-SIGN cells (p24 Ag); format: cell-based; conditions: HIV-1 exposed 30 min to compound before addition to cells
Description: Inhibition of HIV-1 capture by Raji/DC-SIGN cells. HIV-1 particles (2.2 μg p24/ml) were exposed to serial dilutions of the test compounds (400 μl) for 30 min. Then, the drug-exposed virus suspensions (500 μl) were mixed with Raji/DC-SIGN cell suspensions (500 μl; 10^6 cells) for 60 min at 37° C. after which the cells were thoroughly washed twice with 40 ml culture medium as described above. […] The Raji/DC-SIGN cell cultures were then analysed for HIV-1 p24 Ag content.
Raji B-lymphocyte cells were modified to express DC-SIGN at their cell surface (Geijtenbeek et al., 2000; Wu et al., 2004). When Raji/DC-SIGN cells were exposed to cell-free HIV-1(IIIB) particles, they were able to efficiently capture the virus particles as evidenced by retention of p24 antigen of HIV-1 on the Raji/DC-SIGN cells (˜1200 pg p24). […] The CBA could prevent >90% of HIV-1 capture at concentrations >2 μM for GNA, HHA and CA; >10 μM for UDA and >60 μM for PRM-A.

Influenza A H1N1 = format: cell-based
HCVpp (1a) = assay: HCV pseudoparticle HCVpp (1a) entry into Huh7 cells, luciferase activity; format: cell-based; conditions: for EC50: Huh7 cells, luciferase activity, mean ±SD
From the text: as §1, §2, §3

Influenza A H3N2 = format: cell-based
HCVpp (2b) = assay: HCV pseudoparticle HCVpp (2b) entry into Huh7 cells, luciferase activity; format: cell-based; conditions: mean ±SD
From the text: as §1, §2, §3

[2] = test system: AB-resistant HIV-1 (N44.3), glycan deletions N461P and N635K; assay: Anti-HIV activity against AB-resistant HIV-1 strain in CEM cells; format: cell-based; conditions: AB-resistant virus strain (N461P, N635K)
HUT-78/HIV + Sup T-1 = assay: Giant cell formation in a co-cultivation assay HUT-78/HIV + Sup T-1; format: cell-based
HIV-1 (NL4.3) = assay: Anti-HIV activity of Alcian Blue against HIV-1 (NL4.3) in CEM cells
Description: Compounds were tested against HIV-1 strains (HE, NL43, MN, IIIB), HIV-2 strains (ROD, EHO, RF), and SIV (MAC251) for inhibition of virus-induced cytopathicity in MT-4 cells (or CEM or C8166 or Molt4/C8 cells), using the colorimetric test described by Pauwels et al. in J. Virol. […] For example microtiter 96-well plates containing ˜3×10^5 CEM cells/ml, infected with 100 CClD50 of HIV per ml and containing appropriate dilutions of the test compounds were used.
A rapid and automated assay procedure was used for the in vitro evaluation of anti-HIV agents. An HTLV-1 transformed T4-cell line MT-4, which was previously shown to be highly susceptible to and permissive for HIV infection, can serve as the target cell line. Inhibition of the HIV-induced cytopathogenic effect was used as the end point. The viability of both HIV- and mock-infected cells was also assessed spectrophotometrically via in situ reduction of 3(4,5-dimethylthiazol-2-yl)-2,5-diphenyltetrazolium bromide (MTT). Methods comprise for example the microscopic examination of CEM, C8166 or Molt4/C8 giant (syncytium) cell formation, after 4 to 5 days of incubation at 37° C. in a CO2-controlled humidified atmosphere. […] The percent protection achieved by the compound in HIV-infected cells is calculated by the following formula:

[3] = in the presence of mannan 2.5 mg/ml, read-out: HIV-1 EC50 +Mannan (2.5 mg/ml)
[4] = virus-induced cytopathicity, mean ±SD, read-out: EC50 HIV-1(IIIB) (CEM)
[5] = without mannan (Table 3), read-out: HIV-1 EC50 As such
[6] = in the presence of mannan 2.5 mg/ml, read-out: HCV(2a) EC50 +Mannan (2.5 mg/ml)
[7] = luciferase activity, mean ±SD, read-out: EC50 HCV (2a) (Huh7)
[8] = without mannan (Table 3), read-out: HCV(2a) EC50 As such

For `CN[C@@H]1[C@H](O[C@@H]2OC[C@@H](O)[C@H](O)[C@H]2O)[C@@H](O)[C@H](O[C@H]2c3cc(C)c(C(=O)N[C@H](C)C(=O)O)c(O)c3-c3c(cc4c(c3O)C(=O)c3cc(OC)cc(O)c3C4=O)[C@@H]2O)O[C@@H]1C` [PRM-A, pradimicin A, reference compound], the EC50 (HIV-1 (strain IIIB); [3]) was 40000 ± 13000 nM, the EC50 (HIV-1 (strain IIIB); [4]) was 3360 ± 1200 nM and the EC50 (HIV-1 (strain IIIB); [5]) was 5300 ± 780 nM. For the same molecule, the EC50 (HCVcc (subtype 2a); [6]) was greater than 30000 nM, the EC50 (HCVcc (subtype 2a); [7]) was 3610 ± 780 nM and the EC50 (HCVcc (subtype 2a); [8]) was 3610 ± 780 nM. For the same molecule, the EC50 (HCVpp (1b)) was 1670 ± 60 nM, the EC50 (HIV-2 (strain ROD)) was 1800 nM and the EC50 (VSVpp) was greater than 60000 nM. For the same molecule, the “EC50 Influenza B” value (Influenza B) was 2.4 µg/mL (≈ 2.85 µM), the “concentration preventing >90% of HIV-1 capture by Raji/DC-SIGN cells” value [1] was greater than 60 µM and the “EC50 Influenza A H1N1” value (Influenza A H1N1) was 1.9 µg/mL (≈ 2.26 µM). The EC50 (HCVpp (1a)) was 1170 ± 310 nM, the “EC50 Influenza A H3N2” value (Influenza A H3N2) was 1.6 µg/mL (≈ 1.9 µM) and the EC50 (HCVpp (2b)) was 924 ± 156 nM.

Alcian Blue was tested, and the “EC50 HIV-1R (N44.3) (CEM)” value [2] was greater than 50 µg/mL, the “EC50 HUT-78/HIV + Sup T-1” value (HUT-78/HIV + Sup T-1) was 4.5 ± 1.5^c μg/ml and the “EC50 HIV-1 (NL4.3) (CEM)” value (HIV-1 (NL4.3)) was 5 ± 1 µg/mL. For the same molecule, the “EC50 Influenza B” value (Influenza B) was greater than 20 µg/mL, the “EC50 Influenza A H1N1” value (Influenza A H1N1) was greater than 20 µg/mL and the “EC50 HCVpp (1a)” value (HCVpp (1a); Alcian Blue table) was 30^d μg/ml. The “EC50 Influenza A H3N2” value (Influenza A H3N2) was greater than 20 µg/mL.

B1: UDA: GlcNAc-specific plant lectin from Urtica dioica (stinging nettle) (protein, UniProt P11218 24-372, looked up)
Lectin/endochitinase 1: QRCGSQGGGGTCPALWCCSIWGWCGDSEPYCGRTCENKCWSGERSDHRCGAAVGNPPCGQDRCCSVHGWCGGGNDYCSGSKCQYRCSSSVRGPRVALSGNSTANSIGNVVVTEPLFDQMFSHRKDCPSQGFYSYHSFLVAAESFPAFGTIGDVATRKREVAAFLAHISQATSGERSDVENPHAWGLCHINTTTVTENDFCTSSDWPCAAGKKYSPRGPIQLTHNFNYGLAGQAIGEDLIQNPDLVEKDPIISFKTALWFWMSQHDNKPSCHDIVLNANSAANRIPNKGVIGNIISRAFGHDDFAVRSSSIGFYKRYCDMLGVSYGHDLKYWFDNTPSSEFQRIQMRVAA
B1 was tested, and the EC50 (HIV-1 (strain IIIB); [3]) was 459 nM, the EC50 (HIV-1 (strain IIIB); [4]) was 140 ± 40 nM and the EC50 (HIV-1 (strain IIIB); [5]) was 149 ± 40 nM. The “decrease of antiviral activity against HIV-1 in the presence of mannan” value (HIV-1 (strain IIIB); mannan) was 3 fold, the EC50 (HCVcc (subtype 2a); [6]) was 560 ± 108 nM and the EC50 (HCVcc (subtype 2a); [7]) was 176 ± 29 nM. The EC50 (HCVcc (subtype 2a); [8]) was 176 ± 29 nM, the EC50 (HCVpp (1b)) was 19 ± 22 nM and the EC50 (HIV-2 (strain ROD)) was 391 ± 106 nM. The EC50 (VSVpp) was greater than 11000 nM, the “concentration preventing >90% of HIV-1 capture by Raji/DC-SIGN cells” value [1] was greater than 10 µM and the “EC50 Influenza A H1N1” value (Influenza A H1N1) was 4.1 µg/mL. For the same molecule, the EC50 (HCVpp (1a)) was 32 ± 15 nM, the “EC50 Influenza A H3N2” value (Influenza A H3N2) was 0.99 µg/mL and the EC50 (HCVpp (2b)) was 50 ± 54 nM.
